{"source": "ChEMBL document CHEMBL5696442", "about": "“Discovery of type II inhibitors of TGFβ-activated kinase 1 (TAK1) and mitogen-activated protein kinase kinase kinase kinase 2 (MAP4K2)” (J Med Chem, 2015)", "key": {"[1]": {"biological_target": "Serine-protein kinase ATM (Homo sapiens) (UniProt Q13315)", "assay": "Inhibition of ATM ATP labeling site in human Huh-7 cell lysate at 1 uM by KiNativ Profiling analysis relative to control", "assay_type": "subcellular"}, "[2]": {"biological_target": "Serine/threonine-protein kinase Nek6 (Homo sapiens) (UniProt Q9HC98)", "sequence (Q9HC98 whole entry)": "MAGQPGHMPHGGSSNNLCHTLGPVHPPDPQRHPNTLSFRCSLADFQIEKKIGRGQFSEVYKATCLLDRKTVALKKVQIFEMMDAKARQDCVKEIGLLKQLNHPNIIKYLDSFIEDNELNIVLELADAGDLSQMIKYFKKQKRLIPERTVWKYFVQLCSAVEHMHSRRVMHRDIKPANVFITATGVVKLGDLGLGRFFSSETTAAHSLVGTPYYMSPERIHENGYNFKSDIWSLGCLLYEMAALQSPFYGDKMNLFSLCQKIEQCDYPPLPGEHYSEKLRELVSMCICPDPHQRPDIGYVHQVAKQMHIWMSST", "assay": "Inhibition of NEK6 Lys2 labeling site harbouring DIKPANVFITATGVVK in human Huh-7 cell lysate at 1 uM by KiNativ Profiling analysis relative to control", "assay_type": "subcellular"}, "[3]": {"biological_target": "T1, Serine/threonine-protein kinase tousled-like 1 (Homo sapiens) (UniProt Q9UKI8)", "T1 sequence (whole entry)": "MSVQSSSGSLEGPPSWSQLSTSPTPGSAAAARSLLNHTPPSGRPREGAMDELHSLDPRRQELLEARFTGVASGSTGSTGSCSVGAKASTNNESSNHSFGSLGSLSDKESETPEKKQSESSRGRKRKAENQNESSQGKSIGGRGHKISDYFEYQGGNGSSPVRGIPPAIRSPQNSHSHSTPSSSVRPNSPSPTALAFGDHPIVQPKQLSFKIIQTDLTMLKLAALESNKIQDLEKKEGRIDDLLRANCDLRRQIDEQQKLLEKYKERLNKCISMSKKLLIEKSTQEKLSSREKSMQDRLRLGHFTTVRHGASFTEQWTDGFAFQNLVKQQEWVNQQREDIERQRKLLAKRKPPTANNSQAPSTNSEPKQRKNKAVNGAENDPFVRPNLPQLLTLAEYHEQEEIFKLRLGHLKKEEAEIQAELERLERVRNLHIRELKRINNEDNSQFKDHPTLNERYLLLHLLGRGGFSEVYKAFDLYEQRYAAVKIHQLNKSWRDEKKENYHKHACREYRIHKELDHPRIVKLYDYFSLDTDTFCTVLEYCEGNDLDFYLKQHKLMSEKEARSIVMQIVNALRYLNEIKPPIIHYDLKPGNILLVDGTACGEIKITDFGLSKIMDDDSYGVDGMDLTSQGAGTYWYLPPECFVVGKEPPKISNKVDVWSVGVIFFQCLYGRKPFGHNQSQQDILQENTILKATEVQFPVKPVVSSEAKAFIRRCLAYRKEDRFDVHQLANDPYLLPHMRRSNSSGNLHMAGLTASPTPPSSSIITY", "assay": "Inhibition of TLK1 Lys2 labeling site in human Huh-7 cell lysate at 1 uM by KiNativ Profiling analysis relative to control", "assay_type": "subcellular"}, "[4]": {"biological_target": "Calcium/calmodulin-dependent protein kinase type 1 (Homo sapiens) (UniProt Q14012)", "sequence (Q14012 whole entry, looked up)": "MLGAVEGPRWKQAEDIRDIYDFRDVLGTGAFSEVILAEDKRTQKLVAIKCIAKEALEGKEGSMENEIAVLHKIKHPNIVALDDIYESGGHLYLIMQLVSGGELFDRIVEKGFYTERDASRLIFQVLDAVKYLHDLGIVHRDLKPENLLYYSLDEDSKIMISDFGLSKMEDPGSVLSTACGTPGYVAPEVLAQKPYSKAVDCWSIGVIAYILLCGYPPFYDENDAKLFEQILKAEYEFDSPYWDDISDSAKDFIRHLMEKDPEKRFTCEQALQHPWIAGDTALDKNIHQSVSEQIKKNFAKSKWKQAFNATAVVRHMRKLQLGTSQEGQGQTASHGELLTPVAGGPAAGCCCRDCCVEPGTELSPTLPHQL", "assay": "Inhibition of CaMK1a Lys1 labeling site in human Huh-7 cells at 1 uM by KiNativ Profiling analysis relative to control", "assay_type": "cell-based"}, "[5]": {"biological_target": "Macrophage colony-stimulating factor 1 receptor (Homo sapiens) (UniProt P07333)", "sequence (P07333 whole entry)": "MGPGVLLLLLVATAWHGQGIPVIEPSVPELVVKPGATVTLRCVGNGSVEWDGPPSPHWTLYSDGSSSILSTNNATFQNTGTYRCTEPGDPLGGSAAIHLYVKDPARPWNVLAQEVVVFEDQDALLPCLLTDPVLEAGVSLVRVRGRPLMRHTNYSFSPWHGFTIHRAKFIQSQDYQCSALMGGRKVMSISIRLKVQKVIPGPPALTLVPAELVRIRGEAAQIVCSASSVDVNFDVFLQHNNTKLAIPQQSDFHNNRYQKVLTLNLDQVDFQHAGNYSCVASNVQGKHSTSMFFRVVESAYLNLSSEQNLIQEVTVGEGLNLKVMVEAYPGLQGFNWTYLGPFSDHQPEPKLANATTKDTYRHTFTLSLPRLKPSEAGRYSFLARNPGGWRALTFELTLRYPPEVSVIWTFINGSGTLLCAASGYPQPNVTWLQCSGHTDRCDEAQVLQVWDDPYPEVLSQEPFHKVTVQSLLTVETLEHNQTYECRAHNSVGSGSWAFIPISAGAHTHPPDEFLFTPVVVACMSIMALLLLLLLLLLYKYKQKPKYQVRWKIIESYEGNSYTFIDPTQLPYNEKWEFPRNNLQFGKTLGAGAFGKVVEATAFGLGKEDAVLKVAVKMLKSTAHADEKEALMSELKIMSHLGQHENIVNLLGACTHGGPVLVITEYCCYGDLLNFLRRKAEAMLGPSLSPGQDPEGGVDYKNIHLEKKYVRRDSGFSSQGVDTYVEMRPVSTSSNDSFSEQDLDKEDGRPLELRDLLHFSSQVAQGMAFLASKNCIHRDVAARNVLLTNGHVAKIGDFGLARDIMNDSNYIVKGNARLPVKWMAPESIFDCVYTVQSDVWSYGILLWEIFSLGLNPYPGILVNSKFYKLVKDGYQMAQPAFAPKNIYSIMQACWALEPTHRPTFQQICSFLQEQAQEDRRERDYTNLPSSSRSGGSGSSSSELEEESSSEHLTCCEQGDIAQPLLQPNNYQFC", "assay": "Inhibition of CSF1R (unknown origin) at 1 uM by Ambit Kinomescan binding assay relative to control; values are per cent of control"}, "[6]": {"biological_target": "Mitogen-activated protein kinase kinase kinase 20 (Homo sapiens, UniProt Q9NYL2)", "sequence (Q9NYL2 2-800 limits assumed)": "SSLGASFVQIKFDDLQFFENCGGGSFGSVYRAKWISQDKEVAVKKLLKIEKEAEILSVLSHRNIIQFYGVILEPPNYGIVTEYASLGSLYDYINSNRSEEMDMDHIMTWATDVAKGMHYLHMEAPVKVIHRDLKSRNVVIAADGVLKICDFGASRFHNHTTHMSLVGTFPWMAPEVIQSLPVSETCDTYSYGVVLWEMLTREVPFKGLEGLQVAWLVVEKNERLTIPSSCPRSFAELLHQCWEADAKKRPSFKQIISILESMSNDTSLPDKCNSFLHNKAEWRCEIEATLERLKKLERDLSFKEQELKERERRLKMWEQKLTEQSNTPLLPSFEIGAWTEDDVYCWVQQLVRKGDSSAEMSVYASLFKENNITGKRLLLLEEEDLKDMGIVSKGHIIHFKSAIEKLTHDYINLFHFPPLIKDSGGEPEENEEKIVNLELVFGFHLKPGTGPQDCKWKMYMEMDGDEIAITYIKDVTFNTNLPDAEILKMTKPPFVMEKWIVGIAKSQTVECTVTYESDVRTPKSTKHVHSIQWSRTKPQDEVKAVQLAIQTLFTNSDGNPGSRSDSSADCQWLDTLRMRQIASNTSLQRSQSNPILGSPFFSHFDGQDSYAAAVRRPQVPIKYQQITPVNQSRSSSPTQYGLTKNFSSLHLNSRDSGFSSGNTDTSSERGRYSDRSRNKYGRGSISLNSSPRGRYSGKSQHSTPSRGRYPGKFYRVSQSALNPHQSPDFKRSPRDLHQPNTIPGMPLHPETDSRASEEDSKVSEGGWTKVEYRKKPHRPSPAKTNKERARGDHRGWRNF", "assay": "Inhibition of ZAK Lys1 labeling site in human A-375 cells at 0.5 uM by KiNativ Profiling analysis relative to control", "assay_type": "cell-based"}, "[7]": {"biological_target": "Cyclin-dependent kinase 9 (Homo sapiens) (UniProt P50750)", "sequence (P50750 whole entry)": "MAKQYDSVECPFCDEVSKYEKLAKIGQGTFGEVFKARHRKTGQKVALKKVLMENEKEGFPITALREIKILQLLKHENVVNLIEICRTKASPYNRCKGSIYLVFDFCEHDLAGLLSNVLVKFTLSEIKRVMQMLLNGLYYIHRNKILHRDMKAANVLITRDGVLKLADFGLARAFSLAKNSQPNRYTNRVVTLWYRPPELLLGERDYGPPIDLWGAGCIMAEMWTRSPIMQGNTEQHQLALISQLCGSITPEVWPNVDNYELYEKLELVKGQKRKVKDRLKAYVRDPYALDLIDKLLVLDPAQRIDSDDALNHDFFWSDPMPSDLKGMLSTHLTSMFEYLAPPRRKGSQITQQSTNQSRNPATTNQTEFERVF", "assay": "Inhibition of CDK9 (unknown origin) at 10 uM by Ambit Kinomescan binding assay relative to control"}, "[8]": {"biological_target": "Hepatocyte growth factor receptor (Homo sapiens) (UniProt P08581)", "sequence (P08581 whole entry)": "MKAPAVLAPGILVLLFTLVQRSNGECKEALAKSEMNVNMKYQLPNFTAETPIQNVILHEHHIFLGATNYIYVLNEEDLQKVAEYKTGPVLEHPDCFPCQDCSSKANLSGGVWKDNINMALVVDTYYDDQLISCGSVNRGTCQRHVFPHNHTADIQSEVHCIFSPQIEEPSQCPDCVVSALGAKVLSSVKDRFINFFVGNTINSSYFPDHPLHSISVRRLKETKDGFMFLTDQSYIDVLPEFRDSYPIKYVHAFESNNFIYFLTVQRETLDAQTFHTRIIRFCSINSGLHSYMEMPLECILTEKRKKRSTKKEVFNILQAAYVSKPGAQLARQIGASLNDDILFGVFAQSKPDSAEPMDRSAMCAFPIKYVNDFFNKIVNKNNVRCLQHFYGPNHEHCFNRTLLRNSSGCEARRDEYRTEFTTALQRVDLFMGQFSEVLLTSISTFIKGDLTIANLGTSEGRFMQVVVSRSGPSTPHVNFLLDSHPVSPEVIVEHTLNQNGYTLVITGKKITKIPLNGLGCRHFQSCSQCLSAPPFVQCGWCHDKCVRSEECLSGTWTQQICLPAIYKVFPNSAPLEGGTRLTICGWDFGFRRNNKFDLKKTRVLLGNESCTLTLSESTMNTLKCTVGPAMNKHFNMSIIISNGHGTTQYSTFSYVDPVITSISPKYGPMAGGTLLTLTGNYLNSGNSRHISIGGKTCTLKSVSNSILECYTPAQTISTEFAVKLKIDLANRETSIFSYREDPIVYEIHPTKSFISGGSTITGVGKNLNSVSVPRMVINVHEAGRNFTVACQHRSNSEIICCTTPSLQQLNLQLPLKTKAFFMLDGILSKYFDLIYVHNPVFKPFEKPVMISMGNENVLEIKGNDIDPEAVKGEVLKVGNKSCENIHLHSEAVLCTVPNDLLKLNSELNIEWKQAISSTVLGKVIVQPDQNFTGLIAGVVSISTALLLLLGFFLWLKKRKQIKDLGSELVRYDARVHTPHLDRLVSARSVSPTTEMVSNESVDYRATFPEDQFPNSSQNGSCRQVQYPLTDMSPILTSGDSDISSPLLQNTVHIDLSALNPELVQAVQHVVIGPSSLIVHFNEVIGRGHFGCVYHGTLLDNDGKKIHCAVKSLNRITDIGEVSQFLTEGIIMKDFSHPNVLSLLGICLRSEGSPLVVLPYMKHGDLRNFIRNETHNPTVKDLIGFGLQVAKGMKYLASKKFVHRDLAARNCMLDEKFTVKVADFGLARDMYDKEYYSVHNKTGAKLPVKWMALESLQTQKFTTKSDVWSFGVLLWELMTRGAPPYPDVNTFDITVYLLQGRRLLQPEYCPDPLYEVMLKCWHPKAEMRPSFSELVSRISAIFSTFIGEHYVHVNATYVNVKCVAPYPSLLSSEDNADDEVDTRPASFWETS", "assay": "Inhibition of MET ACT labeling site in human Huh-7 cells at 1 uM by KiNativ Profiling analysis relative to control", "assay_type": "cell-based"}, "[9]": {"biological_target": "T2, Serine/threonine-protein kinase TAO2 (Homo sapiens) (UniProt Q9UL54)", "T2 sequence (whole entry)": "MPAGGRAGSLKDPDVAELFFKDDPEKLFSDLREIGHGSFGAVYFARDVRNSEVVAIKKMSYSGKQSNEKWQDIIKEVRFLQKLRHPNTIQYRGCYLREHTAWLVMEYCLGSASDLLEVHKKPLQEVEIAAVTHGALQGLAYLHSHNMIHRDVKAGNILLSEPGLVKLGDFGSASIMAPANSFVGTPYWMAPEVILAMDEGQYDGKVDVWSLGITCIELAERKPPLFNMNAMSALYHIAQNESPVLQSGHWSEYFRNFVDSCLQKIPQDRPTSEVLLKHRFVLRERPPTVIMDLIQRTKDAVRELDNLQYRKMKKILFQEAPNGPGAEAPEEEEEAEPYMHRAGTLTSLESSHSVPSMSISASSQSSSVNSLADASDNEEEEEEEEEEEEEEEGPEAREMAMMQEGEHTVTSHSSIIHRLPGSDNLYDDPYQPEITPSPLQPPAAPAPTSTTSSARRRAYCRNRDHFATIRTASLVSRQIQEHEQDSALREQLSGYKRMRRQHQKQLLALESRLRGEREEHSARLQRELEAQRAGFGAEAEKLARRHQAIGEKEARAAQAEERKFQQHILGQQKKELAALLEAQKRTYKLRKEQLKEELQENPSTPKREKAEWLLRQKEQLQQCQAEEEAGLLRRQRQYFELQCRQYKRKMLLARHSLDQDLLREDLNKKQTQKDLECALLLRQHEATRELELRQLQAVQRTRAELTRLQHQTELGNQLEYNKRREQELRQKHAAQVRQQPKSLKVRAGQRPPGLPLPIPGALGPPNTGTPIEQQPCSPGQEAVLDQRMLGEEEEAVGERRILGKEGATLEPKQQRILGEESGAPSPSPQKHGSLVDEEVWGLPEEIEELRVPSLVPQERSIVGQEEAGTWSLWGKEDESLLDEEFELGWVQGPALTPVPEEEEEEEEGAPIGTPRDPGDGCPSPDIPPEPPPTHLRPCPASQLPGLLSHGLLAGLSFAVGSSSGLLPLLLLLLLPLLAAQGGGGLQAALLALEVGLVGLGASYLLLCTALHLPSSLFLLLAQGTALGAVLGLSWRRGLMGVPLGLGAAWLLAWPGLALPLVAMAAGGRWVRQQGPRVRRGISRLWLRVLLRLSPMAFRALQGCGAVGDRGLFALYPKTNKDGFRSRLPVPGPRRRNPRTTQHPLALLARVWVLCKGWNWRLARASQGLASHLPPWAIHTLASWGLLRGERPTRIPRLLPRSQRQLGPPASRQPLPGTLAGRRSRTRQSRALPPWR", "assay": "Inhibition of TAO2 K2 labeling site in human Huh-7 cells at 1 uM by KiNativ Profiling analysis relative to control", "assay_type": "cell-based"}}, "data": [{"smiles": "CNc1cc(Oc2cc(C(=O)Nc3cc(N4CCN(C)CC4)cc(C(F)(F)F)c3)ccc2C)ncn1", "values": [{"measurement": "inhibition", "setting": "[1]", "value": 4.8, "unit": "%"}, {"measurement": "inhibition", "setting": "[2]", "value": -5, "unit": "%"}, {"measurement": "inhibition", "setting": "[3]", "value": 1, "unit": "%"}, {"measurement": "inhibition", "setting": "[4]", "value": 3.6, "unit": "%"}]}, {"smiles": "CCN1CCN(Cc2ccc(NC(=O)c3ccc(C)c(/C=C/c4cnc5[nH]ccc5c4OC)c3)cc2C(F)(F)F)CC1", "values": [{"measurement": "residual activity", "setting": "[5]", "value": 0.75, "unit": "%"}]}, {"smiles": "CCN1CCN(Cc2ccc(NC(=O)c3ccc(C)c(Oc4ccnc5[nH]ccc45)c3)cc2C(F)(F)F)CC1", "values": [{"measurement": "inhibition", "setting": "[6]", "value": 93, "unit": "%"}, {"measurement": "inhibition", "setting": "[7]", "value": 5.8, "unit": "%"}, {"measurement": "inhibition", "setting": "[8]", "value": 15.5, "unit": "%"}, {"measurement": "inhibition", "setting": "[9]", "value": 4.7, "unit": "%"}]}]}
